Assay results reported in US9662372B2 (priority 2013, dated 2017).
Where no end group is shown, it is not given here. [ ]: non-standard residue; d: D form. βAla = NCCC(=O)O

Columns and labels:
[1] = test system: C. difficile ATCC 9689; experiment: Bacterial mass in wells of PM panels (OD 750 nm); assay type: cell-based, Clostridium difficile; conditions: OD difference with vs without C. difficile, 72 h
[2] = test system: C. difficile ATCC 9689; assay type: cell-based, Clostridium difficile
[3] = phosphorus/sulfur source panel PM04
[4] = nitrogen source (PM03/06/07/08)

CCCCS(=O)(=O)O [Butane Sulfonic acid]
C. difficile Mass [1, 3]: 0.0398 OD (750 nm)

Leu-Trp
Effect on toxin production (in words) [2]: toxin production inhibitor
Toxin [2]: <0.122 ng/mL
C. difficile Mass [1, 4]: 0.0380 OD (750 nm)

O=C(O)[C@@H]1CCCN1 [L-Proline]
Toxin induction (rank, in words) [2]: highest toxin inducer in the amino acid category
C. difficile Mass [1, 4]: 0.0394 OD (750 nm)

Nc1ccn([C@@H]2O[C@@H]3COP(=O)(O)O[C@H]3[C@H]2O)c(=O)n1 [Cytidine 3′,5′-Cyclic Monophosphate]
Toxin [2]: 321 ng/mL
C. difficile Mass [1, 3]: 0.0106 OD (750 nm)

Arg-Arg
Toxin [2]: 8229 ng/mL
C. difficile Mass [1, 4]: 0.0435 OD (750 nm)

Ala-Pro
Toxin [2]: <0.122 ng/mL
C. difficile Mass [1, 4]: 0.0507 OD (750 nm)

Tyr-Ala
Toxin [2]: 186 ng/mL
C. difficile Mass [1, 4]: 0.0331 OD (750 nm)

Gly-Ser
Toxin [2]: <0.122 ng/mL
C. difficile Mass [1, 4]: 0.0471 OD (750 nm)

[βAla]-Gly
Toxin [2]: 1547 ng/mL
C. difficile Mass [1, 4]: 0.0389 OD (750 nm)

N[C@@H](Cc1c[nH]c2ccccc12)C(=O)O [L-Tryptophan]
C. difficile Mass [1, 4]: 0.0299 OD (750 nm)

CC[C@H](C)[C@H](N)C(=O)O [L-Isoleucine]
C. difficile Mass [1, 4]: 0.0563 OD (750 nm)

NC(=O)NCCC[C@H](N)C(=O)O [L-Citrulline]
C. difficile Mass [1, 4]: 0.0377 OD (750 nm)

NCCCC(=O)O [γ-Aminobutyric acid]
C. difficile Mass [1, 4]: 0.0375 OD (750 nm)

Val-Asp
Toxin [2]: 225 ng/mL
C. difficile Mass [1, 4]: 0.0469 OD (750 nm)

CC(=O)C(=O)O [Pyruvic Acid]
C. difficile Mass ([1]; carbon source (PM01/PM02)): 0.093 OD (750 nm)

Arg-Asp
Toxin [2]: 10371 ng/mL
C. difficile Mass [1, 4]: 0.0444 OD (750 nm)

Ser-Pro
Toxin [2]: 7136 ng/mL
C. difficile Mass [1, 4]: 0.0472 OD (750 nm)

Pro-Arg
Toxin [2]: 2967 ng/mL
C. difficile Mass [1, 4]: 0.0442 OD (750 nm)

Nc1ncnc2c1ncn2[C@@H]1O[C@H](CO)[C@@H](O)[C@H]1O [Adenosine]
C. difficile Mass [1, 4]: 0.0472 OD (750 nm)
C. difficile Mass ([1]; nutritional stimulant panel PM05): 0.0414 OD (750 nm)

N[C@H](CO)C(=O)O [D-Serine]
C. difficile Mass ([1]; carbon source (PM01/PM02)): 0.1114 OD (750 nm)
C. difficile Mass [1, 4]: 0.0465 OD (750 nm)

O=c1[nH]c(=O)c2ncn([C@@H]3O[C@H](CO)[C@@H](O)[C@H]3O)c2[nH]1 [Xanthosine]
C. difficile Mass [1, 4]: 0.0516 OD (750 nm)

O=C(CO)[C@@H](O)[C@@H](O)[C@H](O)CO [D-Tagatose]
C. difficile Mass ([1]; carbon source (PM01/PM02)): 0.138 OD (750 nm)

O=C[C@H](O)[C@@H](O)[C@H](O)[C@H](O)CO [D-glucose]
Average dye reduction rate of CHO-k1 in the presence of C. difficile supernatant [2]: 57.19
Corrected dye reduction rate [2]: 54.6

CCCCCCCCCC(=O)O [Capric acid]
C. difficile Mass ([1]; carbon source (PM01/PM02)): 0.014 OD (750 nm)

CC(C)C[C@H](N)C(=O)O [L-Leucine]
C. difficile Mass ([1]; carbon source (PM01/PM02)): 0.089 OD (750 nm)

N=C(N)NCCC[C@H](N)C(=O)O [L-Arginine]
C. difficile Mass [1, 4]: 0.046 OD (750 nm)

NC(=O)[C@@H](O)[C@@H](O)[C@H](O)[C@@H](O)C=O [Glucuronamide]
C. difficile Mass [1, 4]: 0.0369 OD (750 nm)

C[C@@H](O)[C@H](N)C(=O)O [L-Threonine]
C. difficile Mass ([1]; carbon source (PM01/PM02)): 0.0643 OD (750 nm)

N[C@@H](Cc1c[nH]cn1)C(=O)O [L-Histidine]
C. difficile Mass [1, 4]: 0.0361 OD (750 nm)

NCCc1ccc(O)cc1 [Tyramine]
C. difficile Mass [1, 4]: 0.0442 OD (750 nm)

C[C@@H](N)C(=O)O [D-Alanine]
C. difficile Mass ([1]; carbon source (PM01/PM02)): 0.1233 OD (750 nm)
C. difficile Mass [1, 4]: 0.038 OD (750 nm)

O=c1[nH]c(=O)c2[nH]c(=O)[nH]c2[nH]1 [Uric acid]
C. difficile Mass [1, 4]: 0.0556 OD (750 nm)

N=C(N)NCCCCN [Agmatine]
C. difficile Mass [1, 4]: 0.043 OD (750 nm)

CC(=O)N[C@H]1C(O)O[C@H](CO)[C@@H](O)[C@@H]1O (stereo partly drawn) [N-Acetyl-D-Glucosamine]
C. difficile Mass ([1]; carbon source (PM01/PM02)): 0.0955 OD (750 nm)

NC(=O)C[C@@H](N)C(=O)O [D-Asparagine]
C. difficile Mass [1, 4]: 0.0321 OD (750 nm)

N[C@@H]1C(O)O[C@H](CO)[C@@H](O)[C@@H]1O (stereo partly drawn) [D-Mannosamine]
C. difficile Mass [1, 4]: 0.0364 OD (750 nm)

OCc1ccccc1O[C@@H]1O[C@H](CO)[C@@H](O)[C@H](O)[C@H]1O [Salicin]
C. difficile Mass ([1]; carbon source (PM01/PM02)): 0.1291 OD (750 nm)

O=S(=O)(O)CCO [2-Hydroxyethane Sulfonic acid]
C. difficile Mass [1, 3]: 0.0428 OD (750 nm)

NC(=O)NC1NC(=O)NC1=O (centres unmarked) [Allantoin]
C. difficile Mass [1, 4]: 0.0425 OD (750 nm)

N[C@H]1C(O)O[C@H](CO)[C@H](O)[C@@H]1O (stereo partly drawn) [D-Galactosamine]
C. difficile Mass [1, 4]: 0.0374 OD (750 nm)

CSCC[C@H](N)C(=O)O [L-Methionine]
C. difficile Mass ([1]; carbon source (PM01/PM02)): 0.0818 OD (750 nm)

CC(C)[C@H](N)C(=O)O [L-Valine]
C. difficile Mass ([1]; carbon source (PM01/PM02)): 0.0917 OD (750 nm)
C. difficile Mass [1, 4]: 0.0431 OD (750 nm)

NCCCC[C@H](N)C(=O)O [L-Lysine]
C. difficile Mass [1, 4]: 0.0436 OD (750 nm)

Dextrin
C. difficile Mass ([1]; carbon source (PM01/PM02)): 0.0478 OD (750 nm)

NCCN [Ethylenediamine]
C. difficile Mass [1, 4]: 0.0369 OD (750 nm)

CCCCCC(=O)O [Caproic acid]
C. difficile Mass ([1]; carbon source (PM01/PM02)): 0.0568 OD (750 nm)

O=C(CO)[C@@H](O)[C@H](O)[C@H](O)CO [D-Fructose]
C. difficile Mass ([1]; carbon source (PM01/PM02)): 0.1435 OD (750 nm)

CC(=O)N[C@H]1[C@H]([C@H](O)[C@H](O)CO)OC(O)(C(=O)O)C[C@@H]1O (some centres unmarked) [N-Acetyl-Neuraminic acid]
C. difficile Mass ([1]; carbon source (PM01/PM02)): 0.1163 OD (750 nm)

N[C@H](CC(=O)O)C(=O)O [D-Aspartic acid]
C. difficile Mass ([1]; carbon source (PM01/PM02)): 0.0269 OD (750 nm)
C. difficile Mass [1, 4]: 0.0109 OD (750 nm)

NCCS(=O)(=O)O [Taurine]
C. difficile Mass [1, 3]: 0.0505 OD (750 nm)

NCCCCN [Putrescine]
C. difficile Mass [1, 4]: 0.0339 OD (750 nm)

O=C(O)CC(Br)C(=O)O (centres unmarked) [Bromosuccinic Acid]
C. difficile Mass ([1]; carbon source (PM01/PM02)): 0.0335 OD (750 nm)

Nc1nc2c(ncn2[C@@H]2O[C@H](CO)[C@@H](O)[C@H]2O)c(=O)[nH]1 [Guanosine]
C. difficile Mass [1, 4]: 0.0092 OD (750 nm)

Cc1cn([C@H]2C[C@H](O)[C@@H](CO)O2)c(=O)[nH]c1=O [Thymidine]
C. difficile Mass [1, 4]: 0.0384 OD (750 nm)

O=C(O)/C=C/C(=O)O [Fumaric Acid]
C. difficile Mass ([1]; carbon source (PM01/PM02)): 0.018 OD (750 nm)

Nc1cc[nH]c(=O)n1 [Cytosine]
C. difficile Mass [1, 4]: 0.0361 OD (750 nm)

C[C@H](N)C(=O)O [L-Alanine]
C. difficile Mass ([1]; carbon source (PM01/PM02)): 0.113 OD (750 nm)

NCCc1ccccc1 [β-Phenylethylamine]
C. difficile Mass ([1]; carbon source (PM01/PM02)): 0.0477 OD (750 nm)
C. difficile Mass [1, 4]: 0.0448 OD (750 nm)

N[C@@H](CCO)C(=O)O [L-Homoserine]
C. difficile Mass ([1]; carbon source (PM01/PM02)): 0.0071 OD (750 nm)
C. difficile Mass [1, 4]: 0.0293 OD (750 nm)

O=c1cc[nH]c(=O)[nH]1 [Uracil]
C. difficile Mass [1, 4]: 0.0375 OD (750 nm)

OC[C@H]1O[C@@H](Oc2ccc(O)cc2)[C@H](O)[C@@H](O)[C@@H]1O [Arbutin]
C. difficile Mass ([1]; carbon source (PM01/PM02)): 0.128 OD (750 nm)

O=c1ccn([C@@H]2O[C@H](CO)[C@@H](O)[C@H]2O)c(=O)[nH]1 [Uridine]
C. difficile Mass [1, 4]: 0.0373 OD (750 nm)

N[C@@H](CO)C(=O)O [L-Serine]
C. difficile Mass ([1]; carbon source (PM01/PM02)): 0.0635 OD (750 nm)

NCCS(=O)O [Hypotaurine]
C. difficile Mass [1, 3]: 0.0438 OD (750 nm)

N[C@@H](CS)C(=O)O [L-Cysteine]
C. difficile Mass [1, 4]: 0.0394 OD (750 nm)

CN [Methylamine]
C. difficile Mass [1, 4]: 0.0398 OD (750 nm)

C[C@H](CCC(=O)NCCS(=O)(=O)O)[C@H]1CC[C@H]2[C@@H]3[C@H](O)C[C@@H]4C[C@H](O)CC[C@]4(C)[C@H]3C[C@H](O)[C@]12C [Taurocholic acid]
C. difficile Mass [1, 3]: 0.0536 OD (750 nm)

O=c1[nH]c(=O)c2[nH]cnc2[nH]1 [Xanthine]
C. difficile Mass [1, 4]: 0.2978 OD (750 nm)

NC(=O)CC[C@H](N)C(=O)O [L-Glutamine]
C. difficile Mass [1, 4]: 0.0339 OD (750 nm)

O=C[C@@H](O)[C@@H](O)[C@H](O)CO [D-Lyxose]
C. difficile Mass ([1]; carbon source (PM01/PM02)): 0.1508 OD (750 nm)

NCCc1c[nH]cn1 [Histamine]
C. difficile Mass [1, 4]: 0.0424 OD (750 nm)

Nc1ccn([C@@H]2O[C@H](CO)[C@@H](O)[C@H]2O)c(=O)n1 [Cytidine]
C. difficile Mass [1, 4]: 0.0456 OD (750 nm)

C[C@H](O)[C@@H](N)C(=O)O [D-Threonine]
C. difficile Mass ([1]; carbon source (PM01/PM02)): 0.0923 OD (750 nm)

CC(N)=O [Acetamide]
C. difficile Mass [1, 4]: 0.0458 OD (750 nm)

NCCCC[C@@H](N)C(=O)O [D-Lysine]
C. difficile Mass [1, 4]: 0.0489 OD (750 nm)

CC(=O)N[C@H]1C(O)O[C@H](CO)[C@H](O)[C@@H]1O (stereo partly drawn) [N-Acetyl-D-Galactosamine]
C. difficile Mass [1, 4]: 0.0355 OD (750 nm)

Nc1ncnc2c1ncn2[C@@H]1O[C@H](COP(=O)(O)O)[C@@H](O)[C@H]1O [Adenosine 5′-Monophosphate]
C. difficile Mass [1, 3]: 0.0495 OD (750 nm)

CCN [Ethylamine]
C. difficile Mass [1, 4]: 0.0401 OD (750 nm)

O=S1(=O)CCCC1 [Tetramethylene Sulfone]
C. difficile Mass [1, 3]: 0.0442 OD (750 nm)

Cc1c[nH]c(=O)[nH]c1=O [Thymine]
C. difficile Mass [1, 4]: 0.0338 OD (750 nm)

NC=O [Formamide]
C. difficile Mass [1, 4]: 0.0418 OD (750 nm)

CCCCCN [N-Amylamine]
C. difficile Mass [1, 4]: 0.0433 OD (750 nm)

N[C@@H](Cc1ccc(O)cc1)C(=O)O [L-Tyrosine]
C. difficile Mass [1, 4]: 0.1528 OD (750 nm)

NCCC[C@H](N)C(=O)O [L-Ornithine]
C. difficile Mass [1, 4]: 0.0369 OD (750 nm)

NC(=O)NC(N)=O [Biuret]
C. difficile Mass [1, 4]: 0.0394 OD (750 nm)

Nc1ccc(S(=O)(=O)O)cc1 [p-Aminobenzene Sulfonic acid]
C. difficile Mass [1, 3]: 0.0485 OD (750 nm)

CCCCCCC(N)C(=O)O (racemic) [D,L-α-Amino-Caprylic acid]
C. difficile Mass [1, 4]: 0.0484 OD (750 nm)

N[C@H]1C(O)O[C@H](CO)[C@@H](O)[C@@H]1O (stereo partly drawn) [D-Glucosamine]
C. difficile Mass [1, 4]: 0.0447 OD (750 nm)

N[C@@H](Cc1ccccc1)C(=O)O [L-Phenylalanine]
C. difficile Mass ([1]; carbon source (PM01/PM02)): 0.0714 OD (750 nm)
